In PMC7187627 (Antimicrobial Agents and Chemotherapy, 2019):
Entries after “also recorded” stand apart in the source; their conditions may differ. Like-named read-outs stand apart in the source and are kept apart here.

How the values were obtained:
[1] = tested on: C. difficile; parameters: method as in PMID 19258353, PMID 19251726; settings: cited from earlier work
[2] = Plasma pharmacokinetics, multiple-ascending-dose phase 1 study; type: in vivo, human; settings: for RAUC (accumulation ratio for AUC) / RCmax (accumulation ratio for Cmax): day 10 vs day 1; for Plasma t1/2 / Plasma t1/2,ss: median (minimum, maximum); for half-life / Cmax / Vd/F: human, plasma, oral; for Vd/F: read-out: Vz/F,ss
Method: This study was conducted in full accordance with the Declaration of Helsinki and good clinical practices (GCP) at Quintiles Phase One Services in Overland Park, KS. Subjects were randomized in a 4:1 fashion (8 active:2 placebo) in each cohort to receive 200 mg, 400 mg, or 600 mg of CRS3123 or matching placebo every 12 h for 10 days (https://clinicaltrials.gov/ct2/show/NCT02106338). Subjects fasted 1 h before and 2 h after administration of the study product with a minimum of 8 oz. (240 ml) of water. Water and noncaffeinated drinks (except grapefruit juice) during the study were not restricted. Informed consent was obtained before any study-related procedures and clinical evaluations were performed. All 30 randomized subjects completed the study; 24 subjects received CRS3123 and 6 subjects received placebo. There were no premature withdrawals or discontinuations.
After a screening period of up to 35 days, eligible subjects were admitted to the study center for baseline evaluations on day −1. On the morning of day 1, eligible subjects were randomized to receive either the study drug or placebo orally every 12 h through day 10. Subjects remained inpatient at the study center until discharge on day 12. During the inpatient period, subjects were monitored for safety and pharmacokinetics (PK). Subjects were followed for 2 additional outpatient visits at the study center, on days 18 ± 2 and 29 ± 2.
PK method development, validation, and sample testing for plasma, feces, and urine were performed at KCAS, LLC (Shawnee, KS). Plasma, urine, and fecal concentrations of CRS3123 were determined by means of validated, sensitive, and specific high-performance liquid chromatography/tandem mass spectrometric (HPLC-MS/MS) assays. The lower limits of quantification of CRS3123 in plasma, feces, and urine were 10.0 ng/ml, 60.0 ng/g, and 100.0 ng/ml, respectively. The validated urine PK assay measured total free CSR3123. Since the majority of urinary CRS3123 was excreted as glucuronide conjugates ([32]), an enzymatic cleavage step using glucuronidase was added to the process to convert the glucuronide conjugates to free CRS3123 for the urine analysis.
The PK population consisted of all subjects who received active study drug (CRS3123) and had at least one measured CRS3123 concentration at a scheduled PK time point after the start of study drug administration.
Pharmacokinetic parameters for plasma were derived using noncompartmental methods with Phoenix WinNonlin version 6.4 (Pharsight Corporation, Certara L.P., Princeton, NJ). PK parameters for urine and feces were derived using SAS version 9.4 (SAS Institute, Inc., Cary, NC). All statistical calculations and reporting were performed using SAS version 9.4. Graphics were prepared with SAS version 9.4 or SigmaPlot 12.5 (Systat Software, Inc., San Jose, CA).
(i) Plasma PK. Plasma concentrations of CRS3123 throughout the 12-h dosing interval on PK days (day 1 and day 10) were summarized using descriptive statistics for each treatment.
One-way analysis of variance (ANOVA) models were used to assess any differences in appropriate PK parameters between adjacent dose levels following a single dose (day 1) and multiple doses (day 10). An ANOVA model on the log-transformed PK parameters (AUC0–12 and Cmax on day 1; AUC0–tau and Cmax on day 10) with fixed effect for treatment was performed separately for the single-dose analysis and multiple-dose analysis. From these models, the least-squares (LS) means together with 95% confidence intervals (Cis) for each dose and the LS means with corresponding 90% CIs for all adjacent dose pairs were calculated. Transformed back from the logarithmic scale, geometric LS means with corresponding 90% CIs were provided for each dose and adjacent dose ratios following both single and multiple dosing. PK accumulation was presented using descriptive statistics, and achievement of steady state was assessed graphically. […]

[3] = 200 mg Q12h, day 10, geometric mean
[4] = 400 mg Q12h, day 10, geometric mean
[5] = 600 mg Q12h, day 10, geometric mean

O=c1cc(NCCCN[C@@H]2CCOc3c(Br)cc(Br)cc32)[nH]c2ccsc12 [CRS3123]
C. difficile toxin production and sporulation [1]: inhibits | CL/F,ss [2, 3]: 80.2 L/h | Plasma Cmin,ss [2, 3]: 85.2 ng/mL | CL/F,ss ([2]; 200 mg Q12h, day 10, median): 82.0 L/h | Plasma Cmin,ss ([2]; 200 mg Q12h, day 10, median): 76.2 ng/mL | RAUC (accumulation ratio for AUC) ([2]; 200 mg Q12h, geometric mean): 1.61 | RCmax (accumulation ratio for Cmax) ([2]; 200 mg Q12h, geometric mean): 1.34 | RAUC (accumulation ratio for AUC) ([2]; 200 mg Q12h, median): 1.54 | RCmax (accumulation ratio for Cmax) ([2]; 200 mg Q12h, median): 1.11 | Plasma t1/2 ([2]; 200 mg Q12h oral, day 1): 3.0 (2.7, 3.7) h | Plasma t1/2,ss ([2]; 200 mg Q12h oral, day 10): 4.6 (4.1, 7.0) h | CL/F,ss [2, 4]: 125 L/h | Plasma Cmin,ss [2, 4]: 112 ng/mL | CL/F,ss ([2]; 400 mg Q12h, day 10, median): 121 L/h | Plasma Cmin,ss ([2]; 400 mg Q12h, day 10, median): 122 ng/mL | RAUC (accumulation ratio for AUC) ([2]; 400 mg Q12h, geometric mean): 1.37 | RCmax (accumulation ratio for Cmax) ([2]; 400 mg Q12h, geometric mean): 1.22 | RAUC (accumulation ratio for AUC) ([2]; 400 mg Q12h, median): 1.21 | RCmax (accumulation ratio for Cmax) ([2]; 400 mg Q12h, median): 1.19 | Plasma t1/2 ([2]; 400 mg Q12h oral, day 1): 3.6 (2.9, 4.3) h | Plasma t1/2,ss ([2]; 400 mg Q12h oral, day 10): 5.0 (3.4, 7.7) h | CL/F,ss [2, 5]: 149 L/h | Plasma Cmin,ss [2, 5]: 160 ng/mL | CL/F,ss ([2]; 600 mg Q12h, day 10, median): 162 L/h | Plasma Cmin,ss ([2]; 600 mg Q12h, day 10, median): 161 ng/mL | RAUC (accumulation ratio for AUC) ([2]; 600 mg Q12h, geometric mean): 1.13 | RCmax (accumulation ratio for Cmax) ([2]; 600 mg Q12h, geometric mean): 1.12 | RAUC (accumulation ratio for AUC) ([2]; 600 mg Q12h, median): 1.15 | RCmax (accumulation ratio for Cmax) ([2]; 600 mg Q12h, median): 1.05 | Plasma t1/2 ([2]; 600 mg Q12h oral, day 1): 2.9 (2.6, 4.0) h | systemic uptake after oral dosing ([2]; 200 to 600 mg twice daily): limited but detectable systemic uptake | dose proportionality of plasma exposure ([2]; 200 to 600 mg, day 1 and day 10): less than dose proportional | accumulation in plasma following multiple twice-daily dosing ([2]; 10 days twice daily, trough concentration profiles): minimal accumulation; also recorded: essentially no accumulation | power model slope (β) estimates for AUC and Cmax ([2]; day 1 and day 10, 200 to 600 mg): well below one | increase of geometric mean AUC0–12 with a 3-fold increase in dose ([2]; first dose, 200 mg to 600 mg): approximately 2.3 fold | increase of geometric mean Cmax with a 3-fold increase in dose ([2]; first dose, 200 mg to 600 mg): ~1.9 fold | half-life ([2]; 200 mg, 200 mg Q12h, day 1, geometric mean, read-out: Plasma t1/2 (converted)): 3.01 h | Cmax ([2]; 200 mg, 200 mg Q12h, day 1, median, read-out: Plasma Cmax): 342 ng/mL | half-life ([2]; 200 mg, 200 mg Q12h, day 10, geometric mean, read-out: Plasma t1/2,ss (converted)): 4.71 h | Vd/F ([2]; 200 mg, 200 mg Q12h, day 10, geometric mean): 591 L | Cmax ([2]; 200 mg, 200 mg Q12h, day 10, median, read-out: Plasma Cmax,ss): 492 ng/mL | Vd/F ([2]; 200 mg, 200 mg Q12h, day 10, median): 578 L | half-life ([2]; 400 mg, 400 mg Q12h, day 1, geometric mean, read-out: Plasma t1/2 (converted)): 3.53 h | Cmax ([2]; 400 mg, 400 mg Q12h, day 1, median, read-out: Plasma Cmax): 504 ng/mL
